Patent US20210277399A1, “Methods of Imaging and Tracking Nucleic Acids in Cells” (Emory University, priority 2020, published 2021)

Assays:
6×MGA-mGFP = experiment: In vitro fluorescence enhancement of MGD2 with 6×MGA-mGFP mRNA; format: binding
Method: (§1) AcGFP mRNA appended with one or six copies of the aptamer sequence at the 5′ end, referred to as 1×MGA-mGFP and 6×MGA-mGFP, respectively, was transcribed.
(§2) A solution of 30 μM of MGD2 was mixed with 4 μM of the corresponding mRNA in 1×PBS (1.54 mM potassium monobasic, 155.17 mM sodium chloride, and 2.71 mM sodium phosphate dibasic with pH=7.2) and incubated at room temperature for 20 min. For comparison, a solution of MGD2 without any RNA was also prepared in 1×PBS. The fluorescence of these solutions was measured using a BioTek Cytation™ 5 plate reader with ex=620±20 nm and em=680±20 nm. The average fluorescence value from replicate experiments was used to calculate fluorescence enhancement.

[1] = Fluorescence of MGD2 without any RNA in 1×PBS; format: physicochemical; conditions: MGD2 without RNA in 1×PBS; 30 μM MGD2; ex=620±20 nm, em=680±20 nm
Method: as §2

Neuro-2a cells [2] = experiment: Fixed-cell imaging of MGA-functionalized mCDK6 in stress granules; format: cell-based, Mouse
Description: Fixed cell experiments enable direct comparisons to FISH and validate labeling of the target RNA in cells. As a biological context for testing the labeling method, stress granules were selected. In response to stress conditions, cells form non-membrane-bound cytosolic […] RNA-protein assemblies to stall the translation of mRNA until the cells are no longer under stress. While most mRNAs can be concentrated to stress granules, different mRNAs have vastly distinct localization efficiencies. Using FISH, experiments indicate that the CDK6 mRNA is highly enriched in stress granules of mammalian cells CDK6 was used as a model system to fluorescently label and image the unique distribution pattern of the mRNA. Both the 6× and 1×MGA sequences were inserted at the 5′ end of the transcript, and the construct was placed under the control of the cytomegalovirus (CMV) promoter (FIG. 2A). Mouse neuroblastoma Neuro-2a cells were then transfected with these plasmids and incubated with 30 μM MGD2 for 20 min. The cells were then irradiated using 365 nm UV light to allow for covalent labeling of the aptamer. The media was replaced to washout excess dye, and cell stress conditions were induced by 45 min of arsenite exposure, a well characterized paradigm to induce formation of stress granules. Following fixation and immunofluorescence labeling of the stress granule marker protein (G3BP1), the cells were imaged using confocal microscopy.
To validate that the fluorescence signal observed was arising from labeling of the target CDK6 mRNA, the Neuro-2a cells were simultaneously incubated with FISH probes complementary to the CDK6 sequence but bearing a spectrally orthogonal fluorophore. This experiment also enabled us to directly compare the sensitivity of the MGA/MGD2 system to the commonly used FISH technique for RNA labeling in fixed cells. Following arsenite stress, MGD2 labeling, and cell fixation, the cells were incubated with our custom FISH probes. […] That may be because during FISH labeling, the fluorescent probe is hybridized after the RNA of interest is localized to granules. […]

[3] = system: cellular RNA extracted from HeLa cells; experiment: Determination of MGD2 selectivity in cellular RNA (agarose gel); format: biochemical; conditions: 10 min UV
Method: To determine the selectivity of MGD2 labeling, 6MGA-mGFP (200 ng) was spiked in into cellular RNA extracted from HeLa cells (400 ng) in 1×PBS. […] After 10 min of UV irradiation, the sample was mixed with equal volume of 50% glycerol solution and heated to 70° C. to denature the RNA. This sample was loaded on to 1% agarose gel containing 1% v/v Clorox® bleach2 and Sybr Gold™. After running the gel for 1 h at a constant 100 V, the gel was frozen with dry ice for 10 min and imaged using GE Amersham Typhoon™. This freezing step enhanced the fluorescence output of the malachite green molecule.
Experiments were performed to determine whether this would create problematic background signal during imaging. […] The collective observations from these experiments served as guidelines for irradiation time and dye concentrations used in subsequent cellular labeling experiments.

[4] = system: control mGFP mRNA that does not contain the aptamer sequence; experiment: Effect of UV-irradiation on fluorescence of MGD2 with control mRNA; format: binding; conditions: up to 15 minutes of UV-irradiation
Method: (§3) The effect of UV-irradiation on the fluorescence enhancement was investigated.
as §2

1×MGA-mGFP = experiment: In vitro fluorescence enhancement of MGD2 with 1×MGA-mGFP mRNA; format: binding
Method: as §1, §3, §2

Neuro-2a cells [5] = experiment: Live cell imaging of mRNA in stress granules; format: cell-based, Mouse
Method: Experiments were performed to determine whether the MGD2/MGA system would be suitable for live cell imaging of endogenous mRNA localization and dynamics. Moreover, experiments were performed to determine whether one could simultaneously track the real-time localization properties of both RNA and proteins within a living cell. For this assay, Neuro-2a cells were co-transfected with expression plasmids for 1×MGA-mCDK6 and dual GFP-tagged G3BP1 protein. The expressed mRNA was labeled with MGD2 and photo crosslinked. The cells were then imaged to record the spatiotemporal features of both mRNA and protein in stress granules. […] Monitoring the signal intensity, the fluorescent signal generated from the MGD2 labeled granules was observed and remained consistent over >25 min of imaging.
After observing the motility and maturation of the granules, experiments were performed to determine whether one could also observe their dissolution. In mammalian cells, stress granules disassemble in the presence of small aliphatic molecules that disrupt weak hydrophobic interactions. Therefore, 1,6-hexanediol, an aliphatic alcohol commonly used for disassembly of stress granules was added. After arsenite-induced stress granule formation, the cells were incubated in 5% 1,6-hexanediol solution. The fluorescence signal of the labeled 1×MGA-mCDK6 was observed. […]

[6] = 6×MGA-mGFP in the presence of MGD2
[7] = 6MGA-mGFP 200 ng in 400 ng HeLa RNA, MGD2 50 μM
[8] = 1×MGA-mGFP in the presence of MGD2

| SMILES | emission maximum (6×MGA-mGFP; [6]) | excitation maximum (6×MGA-mGFP; [6]) | fluorescence enhancement (6×MGA-mGFP; MGD2 bound to 6×MGA-mGFP, prior to UV-irradiation) | fluorescence output (mean) [1] | difference in fluorescence intensity of cytoplasmic mRNA granules, 1×MGA versus 6×MGA (Neuro-2a cells [2]; 1×MGA reduced versus 6×MGA-functionalized mRNA) | sensitivity of RNA detection compared with FISH (Neuro-2a cells [2]; 1×MGA- and 6×MGA-functionalized mRNAs, FISH probes complementary to CDK6) | labeling in control cells (Neuro-2a cells [2]; cells transfected with CDK6 lacking the MGA sequence, MGD2 and UV irradiation) | labeling of aptamer functionalized mRNA spiked into cellular RNA [3, 7] | labeling of cellular RNA [3, 7] | labeling of other cellular RNAs (bands in the MG channel) ([3]; MGD2 30 μM with 6×MGA-mGFP in presence of cellular RNA) | fluorescence enhancement with control mRNA [4] | emission maximum (1×MGA-mGFP; [8]) | excitation maximum (1×MGA-mGFP; [8]) | fluorescence enhancement after UV irradiation (1×MGA-mGFP; 1×MGA-mGFP, after 15 minutes of UV irradiation (stabilized)) | fluorescence enhancement (1×MGA-mGFP; MGD2 bound to 1×MGA-mGFP, prior to UV-irradiation) | effect on RNA granules (Neuro-2a cells [5]; 5% 1,6-hexanediol, labeled 1×MGA-mCDK6) | incubation time after which signal from the protein granules disappeared (Neuro-2a cells [5]; 5% hexanediol, after arsenite-induced stress granule formation) |
| --- | --- | --- | --- | --- | --- | --- | --- | --- | --- | --- | --- | --- | --- | --- | --- | --- | --- |
| CN(C)c1ccc(C(=C2C=CC(=[N+](C)C)C=C2)c2ccc(NC(=O)CCC3(C)N=N3)cc2)cc1 [MGD2, N-(4-((4-(dimethylamino)phenyl)(4-(3-(3-methyl-3H-diazirin-3-yl) Propan amido)phenyl)methylene)cyclohexa-2,5-dien-1-ylidene)-N-methylmethanaminium Chloride] | 660 nm | 625 nm | > 1000 fold | 6.25 | ~2 fold | higher sensitivity for RNA detection than FISH | did not show any labeling | selectively labeled the aptamer functionalized mRNA | did not have any detectable labeling of cellular RNA | no bands from labeling of other cellular RNAs | did not result in any detectable fluorescence enhancement | 660 nm | 625 nm | approximately 140 fold | 251 fold | – | – |
| OCCCCCCO [1,6-hexanediol] | – | – | – | – | – | – | – | – | – | – | – | – | – | – | – | most of the RNA granules exhibited a more sustained structural integrity | 7 min |
